Experiments:
[1] = test system: Malassezia furfur strain DSM 6170; assay: Long-term stability of P18 solution, growth test (CFU); assay type: cell-based
Protocol: (§1) The studies described hereinafter were conducted on the Malassezia furfur strain DSM 6170.
Since storage may be necessary over a prolonged period, a 1 mM P18 peptide solution (P18 sequence H-KWKLFKKIPKFLHLAKKF-NH2) was subsequently stored at 37° C. over 12 weeks, and the antifungal activity of the stored solution on Malassezia furfur was compared with the activity of a freshly made up 1 mM P18 peptide solution. This was done using a growth test, which was conducted as follows:
Growth medium: M472 Pityrosporum medium according to DSMZ 40 g/1 malt extract 20 g/l ox bile
(§2) The growth test was effected as follows: a shake culture containing M472 Pityrosporum medium was inoculated with M. furfur and incubated with shaking at 30° C. and 200 rpm overnight.
A 96-well microtiter plate was filled with 100 μl per well of M472 Pityrosporum medium and inoculated with M. furfur suspension from the overnight culture. The M. furfur suspension was adjusted at the start of the experiment to an optical density, measured at 600 nm, of 0.02. The concentrates of the inhibitor solutions were 1 mM in water.
The following growth was compared: • M. furfur suspension without addition of an inhibitor • M. furfur suspension and addition of an aqueous fresh P18 solution with a final concentration of 50 μM • M. furfur suspension and addition of an aqueous fresh P18 solution with a final concentration of 25 μM • M. furfur suspension and addition of a P18 solution which had been stored at 37° C. for 12 weeks with a final concentration of 50 μM • M. furfur suspension and addition of a P18 solution which had been stored at 37° C. for 12 weeks with a final concentration of 25 μM
The microtiter plate was incubated with shaking at 30° C.
The growth was observed by measuring the optical density over 24 hours. Subsequently, the colony forming units (CFU) were determined by streaking 1 μl and 5 μl of each of the suspensions and, after incubation over 6 days, counting the colonies. The CFU was determined in order to rule out any influence of the biphasic medium, and also the growth form of M. furfur, on the optical density. The experiments were conducted at least in triple determinations.

M. furfur [2] = assay: Kinetics of the effect of P18 in the presence of a shampoo base formulation (CFU); assay type: cell-based, Malassezia furfur; conditions: 10% (v/v) shampoo base formulation 31-3; 0.23-2.3 g/l; 5 min to 24 h
Protocol: The experiments were conducted as follows: [table] The Texapon NSO and Tego Betain L7 components were mixed and dissolved. NaOH was used to adjust the pH to pH 6-7. The growth test was effected as follows: a shake culture containing […]. furfur and incubated with shaking at 30° C. and 200 rpm overnight. A 96-well microtiter plate was filled with 100 μl per well of […]. furfur suspension from the overnight culture. The M. furfur suspension was adjusted at the start of the experiment to an optical density, measured at 600 nm, of 0.1. 10% (v/v) of shampoo base formulation 31-3 was added to the M. furfur suspension. P18 peptide was dissolved with a concentration of 230 g/l in water. […] The microtiter plate was incubated with shaking at 30°.

M. furfur [3] = assay: Long-term stability of P18 in shampoo base formulations (CFU); assay type: cell-based, Malassezia furfur; conditions: formulations 31-1-10, 31-3-5, 31-3-2 stored at 40° C.; 0, 12 and 22 days
Protocol: as §1
The long-term stability of P18 peptide (H-KWKLFKKIPKFLHLAKKF-NH2; carboxyl terminus amidated) in shampoo base formulations was tested.
The Texapon NSO and Tego Betain L7 components were mixed and dissolved. NaOH was used to adjust the pH to pH 6-7. Thereafter, a 100 mM aqueous solution of peptide P18 was prepared. The appropriate volume of the 100 mM P18 peptide solution was added to each of the formulations, such that the final concentrations of peptide P18 listed in Table 15 were obtained.
The formulations were stored at 40° C.
After 0; 12 and 22 days, the effect of the formulations on M. furfur was studied.
as §2
A 96-well microtiter plate was filled with 100 μl per well of M472 Pityrosporum medium and inoculated with M. furfur suspension from the overnight culture. The M. furfur suspension was adjusted at the start of the experiment to an optical density, measured at 600 nm, of 0.1. […]
After 24 hours, the colony forming units (CFU) were determined. For this purpose, 1 μl and 10 μl of each of the suspensions were streaked and, after incubation over the course of 6 days, the colonies were counted.

Malassezia furfur = assay: Effect of P18 in the presence of nonionic and zwitterionic surfactants (CFU); assay type: cell-based; conditions: 24 hours
Protocol: The aim of the experiment was to study the effect of nonionic and zwitterionic surfactants on the activity of P18 peptide (P18 sequence […]). For this purpose, the following surfactants were used: Pluracare F 68 (a polyoxyethylene-polyoxypropylene-polyoxyethylene block copolymer) Plantacare 818 (a glucoside) Tego Betain L7 (cocamidopropyl betaine) The growth test was effected as follows: a shake culture containing […]. furfur and incubated with shaking at 30° C. and 200 rpm overnight. […] The concentrations of the detergent solutions were adjusted such that the final concentration of the particular detergent in the mixture was 2%; 4% or 6%. The concentrations of the P18 peptide solutions were adjusted such that the final concentration of the P18 peptide in the mixture was 0 μM; 50 μM; 100 μM; 250 μM; or 500 μM. The microtiter plate was incubated with shaking at 30° C. […] The CFU was determined in order to rule out any influence of the biphasic medium, and also the growth form of M. furfur, on the optical density. The experiments were each conducted in triplicate determination at least in two independent experiments.

Substance: H-KWKLFKKIPKFLHLAKKF-NH2 [P18, H-KWKLFKKIPKFLHLAKKF-NH2]
- Effect of storage on the activity of the solution ([1]; 1 mM P18 peptide solution, 37° C., 12 weeks): has not affected the activity
- Colony forming units (CFU) ([1]; aqueous P18 solution (fresh), final conc. 25 μM, incubation 16-18 h): 5 ± 8 CFU
- Colony forming units (CFU) ([1]; aqueous P18 solution (fresh), final conc. 25 μM, incubation 24 h): 1 ± 2 CFU
- Colony forming units (CFU) ([1]; aqueous P18 solution (fresh), final conc. 50 μM, incubation 16-18 h): 0 ± 0 CFU
- Colony forming units (CFU) ([1]; aqueous P18 solution (fresh), final conc. 50 μM, incubation 24 h): 1 ± 1 CFU
- Colony forming units (CFU) ([1]; aqueous P18 solution stored at 37° C. for 12 weeks, final conc. 25 μM, incubation 16-18 h): 6 ± 7 CFU
- Colony forming units (CFU) ([1]; aqueous P18 solution stored at 37° C. for 12 weeks, final conc. 25 μM, incubation 24 h): 5 ± 5 CFU
- Colony forming units (CFU) ([1]; aqueous P18 solution stored at 37° C. for 12 weeks, final conc. 50 μM, incubation 16-18 h): 0 ± 0 CFU
- Colony forming units (CFU) ([1]; aqueous P18 solution stored at 37° C. for 12 weeks, final conc. 50 μM, incubation 24 h): 1 ± 1 CFU
- Effect compared with zinc pyrithione and climbazole at different contact times (M. furfur [2]): better properties than zinc pyrithione or climbazole
- Long-term stability in shampoo base formulations (M. furfur [3]): stable properties
- Colony forming units (CFU) counted per μl (Malassezia furfur; Plantacare 818 2%, P18 50 μM): 6 CFU per μl
- Colony forming units (CFU) counted per μl (Malassezia furfur; Plantacare 818 2%, P18 100 μM): 0 CFU per μl
- Colony forming units (CFU) counted per μl (Malassezia furfur; Plantacare 818 2%, P18 250 μM): 0 CFU per μl
- Colony forming units (CFU) counted per μl (Malassezia furfur; Plantacare 818 2%, P18 500 μM): 0 CFU per μl
- Colony forming units (CFU) counted per μl (Malassezia furfur; Plantacare 818 4%, P18 50 μM): 39 CFU per μl
- Colony forming units (CFU) counted per μl (Malassezia furfur; Plantacare 818 4%, P18 100 μM): 5 CFU per μl
- Colony forming units (CFU) counted per μl (Malassezia furfur; Plantacare 818 4%, P18 250 μM): 0 CFU per μl
- Colony forming units (CFU) counted per μl (Malassezia furfur; Plantacare 818 4%, P18 500 μM): 0 CFU per μl
- Colony forming units (CFU) counted per μl (Malassezia furfur; Plantacare 818 6%, P18 50 μM): 106 CFU per μl
- Colony forming units (CFU) counted per μl (Malassezia furfur; Plantacare 818 6%, P18 100 μM): 10 CFU per μl
- Colony forming units (CFU) counted per μl (Malassezia furfur; Plantacare 818 6%, P18 250 μM): 0 CFU per μl
- Colony forming units (CFU) counted per μl (Malassezia furfur; Plantacare 818 6%, P18 500 μM): 0 CFU per μl
- Colony forming units (CFU) counted per μl (Malassezia furfur; Pluracare F68 2%, P18 50 μM): 4 CFU per μl
- Colony forming units (CFU) counted per μl (Malassezia furfur; Pluracare F68 2%, P18 100 μM): 1 CFU per μl
- Colony forming units (CFU) counted per μl (Malassezia furfur; Pluracare F68 2%, P18 250 μM): 0 CFU per μl
- Colony forming units (CFU) counted per μl (Malassezia furfur; Pluracare F68 2%, P18 500 μM): 0 CFU per μl
- Colony forming units (CFU) counted per μl (Malassezia furfur; Pluracare F68 4%, P18 50 μM): 2 CFU per μl
- Colony forming units (CFU) counted per μl (Malassezia furfur; Pluracare F68 4%, P18 100 μM): 0 CFU per μl
- Colony forming units (CFU) counted per μl (Malassezia furfur; Pluracare F68 4%, P18 250 μM): 0 CFU per μl
- Colony forming units (CFU) counted per μl (Malassezia furfur; Pluracare F68 4%, P18 500 μM): 0 CFU per μl
- Colony forming units (CFU) counted per μl (Malassezia furfur; Tego Betain L7 2%, P18 50 μM): 0 CFU per μl
- Colony forming units (CFU) counted per μl (Malassezia furfur; Tego Betain L7 2%, P18 100 μM): 0 CFU per μl
- Colony forming units (CFU) counted per μl (Malassezia furfur; Tego Betain L7 2%, P18 250 μM): 0 CFU per μl
- Colony forming units (CFU) counted per μl (Malassezia furfur; Tego Betain L7 2%, P18 500 μM): 0 CFU per μl
- Colony forming units (CFU) counted per μl (Malassezia furfur; Tego Betain L7 4%, P18 50 μM): 3 CFU per μl
- Colony forming units (CFU) counted per μl (Malassezia furfur; Tego Betain L7 4%, P18 100 μM): 0 CFU per μl
- Colony forming units (CFU) counted per μl (Malassezia furfur; Tego Betain L7 4%, P18 250 μM): 0 CFU per μl
- Colony forming units (CFU) counted per μl (Malassezia furfur; Tego Betain L7 4%, P18 500 μM): 0 CFU per μl
- Colony forming units (CFU) counted per μl (Malassezia furfur; Tego Betain L7 6%, P18 50 μM): 0 CFU per μl
- Colony forming units (CFU) counted per μl (Malassezia furfur; Tego Betain L7 6%, P18 100 μM): 0 CFU per μl
- Colony forming units (CFU) counted per μl (Malassezia furfur; Tego Betain L7 6%, P18 250 μM): 0 CFU per μl
- Colony forming units (CFU) counted per μl (Malassezia furfur; Tego Betain L7 6%, P18 500 μM): 0 CFU per μl

Reference: patent US20120065126A1, “Pharmaceutical Compositions Containing Antifungal Peptides” (BASF SE, priority 2009, published 2012)
